This passage reports logP results from the OPERA property sets (Mansouri et al. 2018).

Where a SMILES comes first, the peptide text is derived from it. [ ]: non-standard residue; d: D form. ξ: configuration not given here. ξW = NC(Cc1c[nH]c2ccccc12)C(=O)O

What is called logP is a log measure of how a compound divides between an organic and an aqueous phase.

Consider `O=C(O)CCCCCON=C(c1cccc(C(F)(F)F)c1)c1cccnn1`, for which the logP was 3.22.
For `O=S(=O)(c1ccccc1)C(F)(F)F`, the logP turned out to be 2.68.
`Cc1ccccc1-n1nnnc1N` displayed a log partition coefficient (logP) of 0.93.
The compound `COc1cc2c(c(OC)c1OC)-c1ccc(SC)c(=S)cc1C(NC(C)=O)CC2` (stereo not drawn) displayed a logP of 1.75.
Regarding `CCCN(CC)CC(=O)Nc1c(C)cccc1C`, the logP came to 2.74.
`CSCCC(N)C(=O)NC(CC(C)C)C(=O)NC(Cc1ccccc1)C(=O)O` (stereo not drawn): the logP is -1.03.
Consider `O=[N+]([O-])c1cc(F)ccc1O`, for which the logP is 1.88.
`Cc1ccccc1Cc1c[nH]cn1` registered a logP of 2.31.
For `C#C[C@]1(O)CC[C@H]2[C@@H]3CCC4=CC(=O)CC[C@@H]4[C@H]3C(=C)C[C@@]21CC` the value was 3.16.
In the case of `COc1cc(OC)c2c(c1)OC(c1ccc(OC)c(OC)c1)C(O)C2` (stereo not drawn), the lipophilicity (logP) came out at 3.1.
As for `Brc1cc(Br)c(-c2ccccc2)c(Br)c1`, the logP came to 6.03.
`Cc1nccc2c1[nH]c1cc(O)ccc12` had a logP of 2.84.
On to `CCCCCCCCCCCCN=C=S`, for which the logP is 7.13.
For `CC(C)CC(Nc1ccc([N+](=O)[O-])cc1[N+](=O)[O-])C(=O)O` (stereo not drawn) the value was 3.25.
For the compound `NC(Cc1cc(I)c(OCCc2ccc(O)cc2)c(I)c1)C(=O)O` (stereo not drawn), the logP was determined as 2.
Consider `Cc1ccc(S(=O)(=O)C(=Cc2ccccc2)C(=O)OC(C)C)cc1`, for which the logP is 3.92.
On to `c1cc2ccc1CCc1ccc(cc1)CC2`, for which the logP turned out to be 4.33.
Take `CCCc1nc(NCN2CCCC2=O)nc(N2CCOCC2)n1`: the logP came to 1.62.
The compound `CCNc1ncnc2c1ncn2C1OC(CO)C(O)C1O` (stereo not drawn) gave a logP of 0.01.
In turn, `CC(C)CC(NC(=O)C(CC(C)C)NC(=O)CNC(=O)C(N)Cc1c[nH]c2ccccc12)C(=O)O` (stereo not drawn) (H-WGLL-OH; configuration not given here) showed a logP of 0.06.
With `COC1CC(OC2C(C)OC(OC3CCC4(C)C(CCC5C4CC(O)C4(C)C(C6=CC(=O)OC6)CCC54O)C3)CC2OC)OC(C)C1OC1CC(O)C(O)C(C)O1` (stereo not drawn), the logP came to 2.14.
Turning to `CNc1ccc2cc3ccc4c(c3nc2c1CO)COCN4`, the logP came to 1.65.
The compound `CC(C)NCC(O)COc1ccc(NC=O)cc1` (stereo not drawn) yielded a logP of 0.54.
`NC(Cc1c[nH]c2ccccc12)C(=O)NCC(=O)NCC(=O)O` (stereo not drawn) (H-[ξW]-Gly-Gly-OH): the logP was -2.72.
As to `O=C(Nc1ncnc2nc[nH]c12)c1ccccc1`, the logP is 1.12.
For `CCCOc1ccccc1CNc1[nH]cnc2ncnc1-2` the value was 3.27.
`CCCCOc1cccc(NC(=O)OCCN2CCCCC2)c1`: the logP is 5.04.
As to `Cc1c(C)c2cc3c(C)coc3nc2oc1=O`, the logP came to 2.25.
`CC(C)CC(NC(=O)C(N)Cc1ccc(O)cc1)C(=O)O` (stereo not drawn) (H-Tyr-Leu-OH; configuration not given here): the logP is -1.75.
`CNc1ncnc2c1ncn2C1OC(CO)C(O)C1O` (stereo not drawn) yielded a logP of -0.52.
The compound `Cc1cccc(C)c1Cc1ccccn1` gave a lipophilicity (logP) of 3.48.
As for `O=S(CCl)c1ccccc1` (stereo not drawn), the logP stood at 1.47.
`O=c1ccc2cc3ccoc3cc2s1` yielded a lipophilicity (logP) of 2.61.
With `Cc1ccc(CO)c(C=NNC(=O)c2cccc(Cl)c2)c1O`, the logP worked out at 3.83.
For `CC(C)COC(=O)n1cc(F)c(=O)[nH]c1=O` the value was 0.87.
To `CN1CCN(Cc2cnccc2Cl)C1=N[N+](=O)[O-]` belongs 0.26.
For `O=C(NCCNCC(O)COc1ccc(CCOCCOCC2CC2)cc1)N1CCC(O)CC1` (stereo not drawn) the value was 1; for `COc1cccc2c1C(=O)c1c(O)c3c(c(O)c1C2=O)CC(O)(C(=O)CO)CC3OC1CC(N(C)C)C(O)C(C)O1` (stereo not drawn), 1.28.
Regarding `O=C(O)C1CSC(c2cc(O)ccc2O)=N1` (stereo not drawn), the logP was 0.9.
For `Cc1oc2cc3oc(=O)ccc3c(C)c2c1C` the value was 3.27; for `CC(C)(C)NC(=O)[C@@H]1C[C@@H]2CCCC[C@@H]2CN1C[C@@H](O)[C@H](Cc1ccccc1)NC(=O)[C@H](CC(N)=O)NC(=O)c1ccc2ccccc2n1`, 4.7; for `COc1ccc(C2Cc3cc(SC(C)(C)C)ccc3N(CCN(C)C)C(=O)C2OC(C)=O)cc1` (stereo not drawn), 5.6.
`CCOc1cc2ncnc(Nc3cccc(Br)c3)c2cc1OCC` yielded a logP of 4.4.
The compound `CC(C)(C)[N+]([O-])=Cc1ccncc1` returned a logP of 0.4.
In turn, `Nc1nnnn1-c1cc(Cl)ccc1Cl` had a logP of 1.61.
`CCCCCCNc1[nH]cnc2ncnc1-2` registered a log partition coefficient (logP) of 3.16.
In turn, `Cc1[nH]cnc1CSCCNC1=C([N+](=O)[O-])CCN1` returned a logP of -0.87.
`COC(=O)c1[nH]cc(-c2ccc(Cl)cc2)c1N1CCOCC1` gave a logP of 3.5.
Regarding `Cn1cnc([N+](=O)[O-])c1S(N)(=O)=O`, the logP is -0.74.
Compound `CCCC(=NOCC)C1=C(O)CC2(CCC(C)C2)OC1=O` (stereo not drawn) displayed a logP of 3.66.
The compound `CC(=O)NCCCCCN(O)C(=O)CCC(=O)NCCCCCN(O)C(=O)CCC(=O)NCCCCCN(O)C(C)=O` had a lipophilicity (logP) of -0.03.
As for `CC1CCN(CC2CN=C(N)O2)CC1` (stereo not drawn), the logP turned out to be 0.91.
To `CC(C)CCCCNc1[nH]cnc2ncnc1-2` belongs 3.61; to `Cc1nc2c3c(c(C(=O)NC4CC4)cn2c1C)CCC(c1ccccc1)O3` (stereo not drawn), 4; to `Cc1ccc(CO)c(C=NNC(=O)c2ccco2)c1O`, 2.67.
Turning to `O=c1ccc2ccc3occc3c2[nH]1`, the logP was 1.82.
`CCNC(=NC#N)NS(=O)(=O)c1cnccc1NC1CCCCCC1` showed a logP of 1.53.
`CCCCC(O)C(CCCCOc1cccc2ccccc12)n1cncn1` (stereo not drawn) gave a logP of 4.31.
As for `CC(C)(C)[N+]([O-])=Cc1ccccc1[N+](=O)[O-]`, the logP stood at 0.8.
`CCN(CCO)CCCOc1cc2ncnc(Nc3cc(CC(=O)Nc4cccc(F)c4F)[nH]n3)c2cc1OC` yielded a logP of 3.5.
In turn, `O=c1cc(-c2cccc(Cl)c2)oc2ccc(Cl)cc12` showed a logP of 4.38.
To `Cc1cccn2c1nc1ccc(N)nc12` belongs 1.75.
Regarding `CNC(=S)NN=C(c1cccc([N+](=O)[O-])c1)c1ccccn1`, the logP came to 2.14.
`Cc1cc(C)cc(OCC2CN=C(N)O2)c1` (stereo not drawn) displayed a logP of 2.25.
For `Cc1nc(C(Cl)(Cl)Cl)nc(C(Cl)(Cl)Cl)n1` the value was 3.78; for `Nc1ccc(CNC(=O)C2CCCN2C(=O)C(Cc2ccc(Cl)c(Cl)c2)NS(=O)(=O)Cc2ccccc2)cn1` (stereo not drawn), 3.68.
In the case of `OCCCCCCNc1ncnc2c1ncn2C1OC(CO)C(O)C1O` (stereo not drawn), the log partition coefficient (logP) turned out to be 0.23.
`CC(c1ccccc1)N1CC(N2CCOCC2)=NC1=O` (stereo not drawn): the logP was 0.8.
For the compound `Cc1cccc(-n2nnnc2N)c1`, the logP worked out at 1.24.
To `CC(C)C1(C)N=C(c2ncc3ccccc3c2C(=O)O)NC1=O` (stereo not drawn) belongs 1.81; to `CCN(CC)CC(=O)NCC(=O)Nc1c(C)cccc1C`, 2.2; to `O=c1cc(-c2c(Cl)cccc2Cl)oc2ccccc12`, 3.79.
Turning to `Clc1ccc(-c2c[nH]cc2N2CCOCC2)cc1`, the logP stood at 3.2.
With `CCCN(CCC)C1CCc2ccc(O)cc2C1` (stereo not drawn), the logP was 3.75.
The compound `Cc1cc2ccc(=O)oc2c2c(C)coc12` showed a lipophilicity (logP) of 2.88.
As to `CCc1cccc(Nc2ccncc2S(=O)(=O)NC(=NC#N)NC(C)C)c1`, the logP worked out at 2.4.
In the case of `O=C(O)CCCCON=C(c1cccc(C(F)(F)F)c1)c1cccnn1`, the logP came out at 2.8.
For `Clc1ccc(C2(Cn3cncn3)OCC3(CCC4OC4C3)CO2)c(Cl)c1` (stereo not drawn) the value was 1.87.
On to `CON(C)C(=O)Nc1cccc(C#N)c1`, for which the logP amounted to 1.33.
Regarding `COc1ccc2c(C)cc(=O)oc2c1`, the logP stood at 1.89.
In turn, `Cc1c(O)c(=O)ccn1CCCOC(=O)c1ccc(O)cc1` had a logP of 0.8.
For `COC(=O)C(C)NP(=O)(OCC1C=CC(n2cc(C)c(=O)[nH]c2=O)O1)Oc1cccc(Br)c1` (stereo not drawn) the value was 1.64.
For `O=C(O)c1cc(O)c(Br)c(O)c1` the value was 1.75; for `COCCNC(=O)Cn1cnc([N+](=O)[O-])n1`, -0.85.
`Nc1nc(N)c2c(N3CCCCC3)cccc2n1` displayed a logP of 2.66.
Compound `C#CCCCCl` returned a logP of 1.85.
In the case of `COC(=O)C1=C(C)NC(C)=C(C(=O)OC(C)C)C1c1cccc2c1OCO2` (stereo not drawn), the logP was found to be 4.15.
With `CCOC(=O)Nc1ccc2cc3ccc4c(c3nc2c1)COCN4C(=O)OCC`, the logP is 3.12.
In turn, `O=C(O)c1ccccc1NC(=O)c1c(O)cccc1O` gave a logP of 3.52.
Compound `CCC(C)C(N)C(=O)NC(CO)C(=O)NC(CC(C)C)C(=O)O` (stereo not drawn) (H-Ile-Ser-Leu-OH; configuration not given here) displayed a logP of -2.28.
`C=C(C)C(=O)OCCCCCCCCCCCC` returned a logP of 6.57.
The compound `COc1ccc(NC(=O)OCCN2CCCCC2)cc1` showed a lipophilicity (logP) of 2.95.
On to `CCCCOc1ccc(NC(=O)OCCN2CCCCC2)cc1`, for which the logP was found to be 4.69.
To `Cc1cccc(Cc2cnc[nH]2)c1C` belongs 2.68; to `CCOP(=O)(NC(C)CC)Oc1cc(C)ccc1[N+](=O)[O-]` (stereo not drawn), 2.73; to `c1ccc(CN2CCN(CCn3nc4ccccc4n3)CC2)cc1`, 3.3.
To `CC(=NNC(=O)c1ccc(Br)cc1)c1cnccn1` belongs 2.9; to `CC(=O)NC(CCCN(Cc1ccccc1)C(=O)N(CCCl)N=O)C(=O)NCc1ccccc1` (stereo not drawn), 1.92.
As to `Cc1c(O)c(=O)ccn1CCCOC(=O)c1ccc(F)cc1`, the logP stood at 1.47.
As to `CC(=O)c1c2ccccc2cc2ccccc12`, the logP is 3.6.
For `CCN(CC)CCCC(C)NC(=O)c1ccc([N+](=O)[O-])cc1[N+](=O)[O-]` (stereo not drawn), the logP was found to be 1.73.
As for `C1CCC2OC2C1` (stereo not drawn), the lipophilicity (logP) was determined as 1.26.
`NC(Cc1ccccc1)C(=O)NCC(=O)NCC(=O)NC(Cc1ccccc1)C(=O)O` (stereo not drawn) (H-FGGF-OH; configuration not given here) had a logP of -1.51.
To `COCCOCCOCCOc1ccc(C2=NC(C)(C(=O)O)CS2)c(O)c1` (stereo not drawn) belongs 1.3.
For `Cc1ccccc1Nc1ccncc1S(=O)(=O)NC(=NC#N)NC(C)C` the value was 1.67; for `CCOC(=O)C1=C(C)NC(C)=C(C(=O)OCC)C1c1cccc2c1OCO2`, 4.32.
Take `O=C(O)c1cccc(F)c1F`: the logP was 1.88.
In the case of `CC(=O)NN=Cc1c(CO)ccc(C)c1O`, the logP worked out at 1.71.
